pIC50: −log10 of the molar value.
What was measured:
[1] = test system: HCT116 colon cancer cells; test: HCT116 cell viability and proliferation assay (MTS); format: cell-based; settings: Homo sapiens, HCT-116, 72 hours incubation, mean of three independent experiments, read-out: HCT116 GI50 D3
Method: HCT116 colon cancer cells were obtained from ATCC (American Type Culture Collection), and maintained in Mc Coy's 5A medium containing 10% FBS, 3 mM glutamine and 1% penicillin/streptomycin. Cells were incubated at 37° C. in a humidified atmosphere containing 5% CO2.
(§1) Cell viability was assayed using the MTS technique in 96-well culture plates (CellTiter 96® Aqueous Non-Radioactive Cell Proliferation Assay, Promega) according to the manufacturer's instructions. MTS (3-(4,5-dimethyl-thiazol-2-yl)-5-(3-carboxymethoxyphenyl)-2-(4-sulfophenyl)-2H-tetra-zolium) is a MTT-derived tetrazolium that is reduced in metabolically active cells into a soluble, cell-permeant formazan. The amount of formazan, detected by its absorbance at 492 nm is proportional to the number of living, metabolically active cells.
(§2) 10^3 HCT116 cells were seeded per well. 24 hours later, the medium was changed and the cells treated in triplicate with the following concentrations of each compound: 10 μM-3.33 μM-1.11 μM-370 nM-123 nM-41 nM-14 nM and 5 nM. The compounds were diluted in 100% DMSO, whose final concentration on cells was kept at 0.5%.
(§3) Cells were incubated with the compounds for 72 hours, and their viability then assayed by the addition of MTS for 2 hours. Absorbance at 492 nm was measured directly from the 96-well culture plates. G150 (Growth Inhibition 50) concentrations for each compound were calculated using a sigmoidal variable slope fit (Prism 4.0, Graphpad Softwares). Values represent mean of three independent experiments.

[2] = test system: PC-3 prostate cancer cells; test: PC3 cell viability and proliferation assay (MTS); format: cell-based; settings: Homo sapiens, PC-3, 72 hours incubation, mean of three independent experiments, read-out: PC3 GI50 D3
Method: PC-3 prostate cancer cells were obtained from ATCC, and maintained in F-12K medium containing 7% FBS and 1% penicillin/streptomycin. Cells were incubated at 37° C. in a humidified atmosphere containing 5% CO2.
as §1, with “(3-(4,5-dimethyl-thiazol-2-yl)-5-(3-carboxymethoxyphenyl)-2-(4-sulfophenyl)-2H-tetrazolium)” for “(3-(4,5-dimethyl-thiazol-2-yl)-5-(3-carboxymethoxyphenyl)-2-(4-sulfophenyl)-2H-tetra-zolium)”
as §2, with “2×10^3 PC3” for “10^3 HCT116”
as §3, with “GI50” for “G150”

[3] = target: T1, USP5 (Homo sapiens, UniProt P45974); test: USP5 activity assay; format: biochemical; settings: 400 nM Ub-AMC, 300 pM enzyme; pre-incubated 30 minutes at 25° C., 60 minutes at 37° C.; sigmoidal fit; read-out: USP 5
T1 sequence (P45974 1-858): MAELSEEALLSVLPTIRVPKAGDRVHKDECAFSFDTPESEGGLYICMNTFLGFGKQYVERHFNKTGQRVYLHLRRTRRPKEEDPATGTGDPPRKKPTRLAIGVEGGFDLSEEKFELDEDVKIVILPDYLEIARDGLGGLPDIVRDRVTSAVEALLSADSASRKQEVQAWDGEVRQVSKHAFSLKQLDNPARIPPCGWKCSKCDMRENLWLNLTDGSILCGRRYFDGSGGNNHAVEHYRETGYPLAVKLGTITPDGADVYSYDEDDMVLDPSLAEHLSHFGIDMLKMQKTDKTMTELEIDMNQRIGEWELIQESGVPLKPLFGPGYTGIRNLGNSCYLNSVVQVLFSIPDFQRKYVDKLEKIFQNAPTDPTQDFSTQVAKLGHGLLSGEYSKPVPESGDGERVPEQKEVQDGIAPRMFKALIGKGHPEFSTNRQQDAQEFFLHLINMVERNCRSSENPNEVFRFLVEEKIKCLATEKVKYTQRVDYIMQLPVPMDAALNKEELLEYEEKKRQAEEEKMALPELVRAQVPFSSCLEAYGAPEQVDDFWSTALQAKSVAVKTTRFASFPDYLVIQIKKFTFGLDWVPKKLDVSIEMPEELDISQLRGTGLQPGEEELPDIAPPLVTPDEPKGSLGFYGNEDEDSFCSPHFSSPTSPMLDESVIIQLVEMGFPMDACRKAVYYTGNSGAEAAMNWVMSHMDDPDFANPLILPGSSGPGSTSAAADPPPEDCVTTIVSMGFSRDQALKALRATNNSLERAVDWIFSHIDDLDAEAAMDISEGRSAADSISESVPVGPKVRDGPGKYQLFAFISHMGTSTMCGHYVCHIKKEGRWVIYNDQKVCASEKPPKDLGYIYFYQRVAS
Method: USP5 was diluted in USP buffer (50 mM Tris HCl; 0.5 mM EDTA; 5 mM DTT; 0.01% Triton X-100; Bovine Serum Albumin 0.05 mg.ml^−1 pH 7.6). Compounds stocks (100 mM) were stored at -20° C. in DMSO.
(§4) Reactions were performed as duplicates in Black LJL 96 well plates (HE microplates; Molecular Devices; 20 μl final reaction volume). The substrate concentration for USP5 was 400 nM Ub-AMC (Boston Biochem). The concentrations of the enzyme (USP5) in specificity assays was 300 pM. The concentrations were determined in order to perform specificity assays under initial velocities at fixed substrate concentration. Compounds were pre-incubated with enzymes for 30 minutes at 25° C. Reactions were initiated by addition of substrate to the plates containing the enzymes (+/− compounds) diluted in assay buffer. Reactions were incubated for 60 minutes at 37° C. Reactions were stopped by adding acetic acid (100 mM final). Readings were performed on a Pherastar Fluorescent Reader (BMG). λ Emission 380 nm; λ Excitation=460 nm. Data (mean values +/− standard deviation) were analyzed as % of control (no compound) and plotted as percentage versus the Log of the compound concentration using GraphPad (Prism). Data were fitted to a sigmoidal model (variable slope).

[4] = target: T2, USP7 (Homo sapiens, UniProt Q93009); test: USP7 activity assay; format: biochemical; settings: 400 nM Ub-AMC, 152 pM enzyme; pre-incubated 30 minutes at 25° C., 60 minutes at 37° C.; sigmoidal fit; read-out: USP 7
T2 construct: His tag (pFastBac-HT vector) (N); made in house; host or cells: Sf9 or High Five insect cells (baculovirus)
T2 sequence (Q93009 whole entry): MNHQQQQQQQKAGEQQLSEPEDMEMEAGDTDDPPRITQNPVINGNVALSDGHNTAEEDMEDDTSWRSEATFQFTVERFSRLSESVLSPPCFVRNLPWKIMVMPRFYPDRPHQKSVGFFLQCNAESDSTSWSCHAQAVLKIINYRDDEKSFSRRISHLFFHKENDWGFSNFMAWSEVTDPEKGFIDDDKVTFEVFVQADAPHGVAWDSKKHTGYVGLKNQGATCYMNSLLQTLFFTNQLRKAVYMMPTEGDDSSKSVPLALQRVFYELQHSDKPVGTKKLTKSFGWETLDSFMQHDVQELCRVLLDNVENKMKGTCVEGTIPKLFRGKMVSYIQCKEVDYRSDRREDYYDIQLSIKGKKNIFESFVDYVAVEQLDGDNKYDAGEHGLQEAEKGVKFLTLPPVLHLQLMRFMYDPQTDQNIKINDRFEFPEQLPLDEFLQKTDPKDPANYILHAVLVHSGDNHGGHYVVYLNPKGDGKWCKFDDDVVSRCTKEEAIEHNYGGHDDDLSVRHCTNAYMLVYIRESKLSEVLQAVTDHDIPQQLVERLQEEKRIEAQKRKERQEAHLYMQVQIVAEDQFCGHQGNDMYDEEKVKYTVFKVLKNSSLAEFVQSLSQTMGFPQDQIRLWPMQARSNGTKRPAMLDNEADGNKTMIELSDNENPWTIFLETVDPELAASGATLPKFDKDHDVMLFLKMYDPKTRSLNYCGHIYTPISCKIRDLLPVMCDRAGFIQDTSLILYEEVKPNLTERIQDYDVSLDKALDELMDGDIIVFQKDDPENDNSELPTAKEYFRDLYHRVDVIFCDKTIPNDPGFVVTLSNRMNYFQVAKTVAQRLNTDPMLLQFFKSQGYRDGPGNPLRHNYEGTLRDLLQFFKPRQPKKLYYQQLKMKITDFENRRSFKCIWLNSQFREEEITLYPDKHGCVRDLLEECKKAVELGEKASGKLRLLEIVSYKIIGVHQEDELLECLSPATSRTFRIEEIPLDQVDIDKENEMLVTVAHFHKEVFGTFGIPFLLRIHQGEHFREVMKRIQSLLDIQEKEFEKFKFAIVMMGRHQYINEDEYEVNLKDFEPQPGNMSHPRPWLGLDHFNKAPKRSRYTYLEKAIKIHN
Source text: The cDNA encoding USP7 was obtained by PCR amplification from placenta mRNA. USP7 cDNA was subcloned by PCR into a baculovirus expression vector (pFastBac-HT; Invitrogen). A cDNA encoding a mutated USP7 was generated by mutagenic PCR. The corresponding protein encodes a cysteine to alanine substitution at residue 223. The sequences were ascertained by sequencing of the entire open reading frame. Bacmids encoding USP7 were generated following DH10bac transposition. The corresponding bacmids were transfected into insect cells (Sf9). Viruses were recovered from culture supernatant and amplified twice. Insect cells (Sf9 or High Five; lnvitrogen) were infected for 72 hours. Total cell lysates were harvested and lyzed in lysis buffer (Tris HCl 50 mM pH 7.6; 0.75 % NP40; 500 mM NaCl; 10% glycerol; 1 mM DTT; 10 mM imidazole; Protease Inhibitor Cocktail; AEBSF 20 μg.ml^−1; Aprotinin 10 μg.ml^−1). Proteins were affinity purified on metal affinity resins (Talon Metal affinity resin; BD Biosciences). Bound materials were extensively washed in wash buffer (50 mM Sodium Phosphate pH 7.0; 300 mM NaCl; 10 mM imidazole; 0.5% Triton X-100; 10% glycerol) and eluted from the resin in 250 mM imidazole-containing wash buffer. Proteins were dialyzed in dialysis buffer (Tris HCl pH 7.6 20 mM; NaCl 200 mM; DTT 1 mM; EDTA 1 mM; 10% Glycerol). Proteins purifications were analyzed on 4-12% NuPAGE (Invitrogen).
USP7 was diluted in USP buffer (50 mM Tris HCl; 0.5 mM EDTA; 5 mM DTT; 0.01 % Triton X-100; Bovine Serum Albumin 0.05 mg.ml^−1 pH 7.6). Compounds stocks (100 mM) were stored at −20° C. in DMSO. Compounds were tested at the following final concentrations: 100 μM; 33.3 μM; 11.1 μM; 3.7 μM; 1.23 μM; 412 nM; 137 nM; 45.7 nM; 15.2 nM; 5 nM.
as §4, with “USP7” for “USP5”, “Ub-AMC (Chem. Biol., 2003, 10, p. 837-846)” for “Ub-AMC”, “(USP7)” for “(USP5)”, “152” for “300”

| GI50 [1] | GI50 [2] | pIC50 [3] | pIC50 [4] | Compound |
| --- | --- | --- | --- | --- |
| 8500 nM | – | – | – | Nc1nnc2nc3c(nn12)C(=O)c1ccccc1-3 [Example 1c/A, 1-Amino-2,3,4,10,10a-pentaaza-cyclopenta[b]fluoren-9-one] |
| 59 nM | 256 nM | – | – | CCc1nnc2nc3c(nn12)-c1ccccc1C3=O [Example 1d/B, 3-Ethyl-1,2,3a,4,10-pentaaza-cyclopenta[b]fluoren-9-one] |
| – | – | 4.46 | – | O=C1c2ccccc2-c2nc3nnc(Cc4ccccc4)n3nc21 [Example 1k/A, 1-Benzyl-2,3,4,10,10a-pentaaza-cyclopenta[b]fluoren-9-one] |
| 1360 nM | 3800 nM | – | – | CCCCc1nnc2nc3c(nn12)C(=O)c1ccccc1-3 [Example 1f/A, 1-Butyl-2,3,4,10,10a-pentaaza-cyclopenta[b]fluoren-9-one] |
| 67 nM | 175 nM | – | – | CCCc1nnc2nc3c(nn12)-c1ccccc1C3=O [Example 1e/B, 3-Propyl-1,2,3a,4,10-pentaaza-cyclopenta[b]fluoren-9-one] |
| 84 nM | 334 nM | – | – | Cc1nnc2nc3c(nn12)-c1ccccc1C3=O [Example 1b/B, 3-Methyl-1,2,3a,4,10-pentaaza-cyclopenta[b]fluoren-9-one] |
| 3000 nM | 4000 nM | – | < 4.00 | CC(C)Cc1nnc2nc3c(nn12)C(=O)c1ccccc1-3 [Example 1g/A, 1-Isobutyl-2,3,4,10,10a-pentaaza-cyclopenta[b]fluoren-9-one] |
| 53 nM | 162 nM | – | – | CC(C)Cc1nnc2nc3c(nn12)-c1ccccc1C3=O [Example 1g/B, 3-Isobutyl-1,2,3a,4,10-pentaaza-cyclopenta[b]fluoren-9-one] |
| 65 nM | 238 nM | – | – | COCc1nnc2nc3c(nn12)-c1ccccc1C3=O [Example 1i/B, 3-Methoxymethyl-1,2,3a,4,10-pentaaza-cyclopenta[b]fluoren-9-one] |
| 1280 nM | 1750 nM | – | < 4.00 | COCc1nnc2nc3c(nn12)C(=O)c1ccccc1-3 [Example 1i/A, 1-Methoxymethyl-2,3,4,10,10a-pentaaza-cyclopenta[b]fluoren-9-one] |
| 3100 nM | 4200 nM | – | < 4.00 | CCCc1nnc2nc3c(nn12)C(=O)c1ccccc1-3 [Example 1e/A, 1-Propyl-2,3,4,10,10a-pentaaza-cyclopenta[b]fluoren-9-one] |
| 1400 nM | 5400 nM | – | – | CCc1nnc2nc3c(nn12)C(=O)c1ccccc1-3 [Example 1d/A, 1-Ethyl-2,3,4,10,10a-pentaaza-cyclopenta[b]fluoren-9-one] |
| 40 nM | 96 nM | – | – | CCCCc1nnc2nc3c(nn12)-c1ccccc1C3=O [Example 1f/B, 3-Butyl-1,2,3a,4,10-pentaaza-cyclopenta[b]fluoren-9-one] |
| 98 nM | 286 nM | – | – | Cc1nnc2nc3c(nn12)-c1ccc(Cl)cc1C3=O [Example 3/B, 7-Chloro-3-methyl-1,2,3a,4,10-pentaaza-cyclopenta[b]fluoren-9-one] |
| 323 nM | 1440 nM | – | – | O=C1c2ccccc2-c2nn3c(CO)nnc3nc21 [Example 1h/B, 3-Hydroxymethyl-1,2,3a,4,10-pentaaza-cyclopenta[b]fluoren-9-one] |
